This is an account of results in PubChem BioAssay (NCI).

Test systems include 786-0 renal; HCT-15 colon; HOP-92 NSCLC; HT29 colon; NCI-H522 lung; SK-MEL-28 melanoma; SNB-19 CNS; UACC-257 melanoma; MDA-MB-231 breast.
Common to all, as to assay: growth of human tumour cells (NCI), 48 h

Each structure is given as a SMILES string.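 These data come from cells grown in 96-well plates and exposed to compound for 48 hours at five concentrations. GI50: concentration for 50% inhibition of growth. At the TGI there is no net growth.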

For the compound `OC(c1ccccc1)(c1ccccc1)c1ccncc1`, the TGI with 786-0 renal, in the assay on HCT-15 colon, in the assay on HOP-92 NSCLC, in the assay on HT29 colon, with NCI-H522 lung and in the assay with SK-MEL-28 melanoma was over 100 µM in each case. The TGI in the assay on SNB-19 CNS and in the assay with UACC-257 melanoma was over 100 µM in each case.

For the compound `Oc1c(C(Nc2cccc3cccnc23)c2ccccc2)ccc2cccnc12` (configuration not stated), the TGI with 786-0 renal is over 100 µM; with NCI-H522 lung, 73.8 µM; in the assay on SNB-19 CNS, over 100 µM; with UACC-257 melanoma, 35.9 µM.

Consider `COC1CC(OS(=O)(=O)c2ccc([N+](=O)[O-])cc2)C(OC(=O)c2ccccc2)C(C)O1` (configuration not stated), for which the TGI in the assay with 786-0 renal, with HCT-15 colon, with HOP-92 NSCLC, in the assay with HT29 colon, in the assay on NCI-H522 lung and in the assay on SK-MEL-28 melanoma was over 100 µM throughout. Besides, the TGI in the assay with SNB-19 CNS and in the assay on UACC-257 melanoma was over 100 µM in each case.

`c1ccc2c(c1)cc(C1NCCc3[nH]cnc31)c1ccccc12` (configuration not stated): the TGI in the assay on 786-0 renal is over 60.8 µM; in the assay on HCT-15 colon, over 100 µM; in the assay with HOP-92 NSCLC, over 95.6 µM; in the assay with HT29 colon, over 100 µM; in the assay with NCI-H522 lung it was over 68.5 µM; in the assay on SK-MEL-28 melanoma it was over 65.5 µM. For the same compound, the TGI in the assay with SNB-19 CNS was over 100 µM; in the assay on UACC-257 melanoma it was over 68.3 µM.

As to `CC(C)C1CC[C@@H](C)C[C@@]1(O)CC(N)=O` (some centres not stated), the TGI in the assay on 786-0 renal, in the assay with HCT-15 colon, in the assay with HT29 colon, with NCI-H522 lung, with SK-MEL-28 melanoma and with SNB-19 CNS was over 100 µM throughout. The TGI with UACC-257 melanoma is over 100 µM.

`Clc1ccc(C2SCc3nc4ccccc4n32)c(Cl)c1` (configuration not stated): the TGI in the assay on 786-0 renal came to 31.9 µM; in the assay with HCT-15 colon, 37.5 µM; with HOP-92 NSCLC, 11 µM; in the assay with HT29 colon it was 30.4 µM; in the assay on NCI-H522 lung, 29.9 µM; in the assay with SK-MEL-28 melanoma it was 31.6 µM. Also, the TGI worked out at 33 µM with SNB-19 CNS and 22.2 µM with UACC-257 melanoma.

Consider `O=C([CH-]C(=O)c1ccccc1)c1ccccc1.O=C([CH-]C(=O)c1ccccc1)c1ccccc1.[La+3].[OH-].[OH3+]`, for which the GI50 in the assay with 786-0 renal is 16 µM; with HCT-15 colon, 13 µM; in the assay with HOP-92 NSCLC, 15.3 µM; in the assay with HT29 colon, 19.4 µM; in the assay with NCI-H522 lung it was 3.29 µM; in the assay with SK-MEL-28 melanoma, 17.1 µM. Further, the GI50 is 19.2 µM in the assay on SNB-19 CNS and 16.3 µM in the assay on UACC-257 melanoma. Moreover, the TGI in the assay on 786-0 renal came out at 65.1 µM; with HCT-15 colon, 48.1 µM; with HOP-92 NSCLC, 38.9 µM; in the assay with HT29 colon it was 50.1 µM; in the assay on NCI-H522 lung, 19.8 µM; in the assay on SK-MEL-28 melanoma, 57.2 µM. The TGI in the assay with SNB-19 CNS amounted to 66.3 µM; in the assay with UACC-257 melanoma it was 46.5 µM.

With `Oc1ccccc1/C=C/c1csnn1`, the TGI in the assay on 786-0 renal was over 31.6 µM; in the assay on HCT-15 colon, over 94.3 µM; in the assay with HOP-92 NSCLC, over 100 µM; in the assay with HT29 colon it was over 100 µM; in the assay on NCI-H522 lung, over 100 µM; in the assay with SK-MEL-28 melanoma, over 100 µM. Further, the TGI with SNB-19 CNS and in the assay with UACC-257 melanoma was over 100 µM each time.

Consider `CCOC(=O)NC(=O)c1cn(CCOC(=O)CCCCCCCCC(=O)OCCn2cc(C(=O)NC(=O)OCC)c(=O)[nH]c2=O)c(=O)[nH]c1=O`, for which the TGI with 786-0 renal, with HCT-15 colon, in the assay with HOP-92 NSCLC, in the assay on HT29 colon, in the assay with SK-MEL-28 melanoma and with SNB-19 CNS was over 100 µM in each case. The compound further registered a TGI with UACC-257 melanoma of over 100 µM.

On to `COc1cc(/C=C2/C(=O)N(C(=O)OCC(C)C)C(Cc3cc(OC)c(OC)c(C)c3OC)C(=O)N2Cc2ccccc2)c(OC)c(C)c1OC` (configuration not stated), for which the TGI in the assay on 786-0 renal, with HOP-92 NSCLC, in the assay on HT29 colon, in the assay with NCI-H522 lung, in the assay on SK-MEL-28 melanoma and with SNB-19 CNS was over 100 µM each time. The compound also returned a TGI in the assay on UACC-257 melanoma of over 100 µM.

Take `O=C(O)CNC(=O)c1ccc(-c2ccccc2)cc1`: the TGI with 786-0 renal, in the assay with HCT-15 colon, with HOP-92 NSCLC, with MDA-MB-231 breast, with NCI-H522 lung and with SK-MEL-28 melanoma was over 100 µM each time. The TGI with SNB-19 CNS and with UACC-257 melanoma was over 100 µM in each case.

Turning to `CP1(=O)CCCCC1`, the TGI in the assay on 786-0 renal, with HCT-15 colon, in the assay on HOP-92 NSCLC, with HT29 colon, with SK-MEL-28 melanoma and in the assay with SNB-19 CNS was over 100 µM throughout. The TGI in the assay with UACC-257 melanoma was over 100 µM.

Turning to `Cc1ccc(S(=O)(=O)OC2CSS(=O)CC2OS(=O)(=O)c2ccc(C)cc2)cc1` (configuration not stated), the TGI in the assay on 786-0 renal turned out to be 30.5 µM; in the assay with HCT-15 colon, 33.6 µM; in the assay with HOP-92 NSCLC it was 25.9 µM; with HT29 colon, 87.5 µM; in the assay on NCI-H522 lung it was 22.6 µM; in the assay with SK-MEL-28 melanoma, 29 µM. The TGI stood at 32 µM in the assay on SNB-19 CNS and 28.2 µM in the assay on UACC-257 melanoma.

Consider `CCOc1ccccc1N1C(=O)C(=O)C(c2nc3ccccc3o2)C(=O)C1=O`, for which the TGI in the assay with 786-0 renal is 65 µM; in the assay on HCT-15 colon it was over 100 µM; in the assay with HOP-92 NSCLC, over 100 µM; in the assay with HT29 colon it was over 100 µM; in the assay with NCI-H522 lung it was over 100 µM; in the assay on SK-MEL-28 melanoma, over 100 µM. Moreover, the TGI with SNB-19 CNS and in the assay on UACC-257 melanoma was over 100 µM in each case.

Regarding `Nc1ccnc(=O)[nH]1`, the TGI in the assay with 786-0 renal, in the assay with HCT-15 colon, in the assay with HOP-92 NSCLC, with HT29 colon, with NCI-H522 lung and in the assay on SK-MEL-28 melanoma was over 100 µM each time. Moreover, in the assay with UACC-257 melanoma, the TGI was over 100 µM.

Take `Cc1ccc2nc(NC(=O)C(=O)C(C#N)c3nc4ccccc4s3)sc2c1` (configuration not stated): the TGI in the assay with 786-0 renal was over 100 µM; with HCT-15 colon, over 100 µM; with HOP-92 NSCLC, 75.3 µM; in the assay with HT29 colon it was over 100 µM; with NCI-H522 lung, over 100 µM; in the assay with SK-MEL-28 melanoma it was over 100 µM. The TGI in the assay on SNB-19 CNS came out at 83.6 µM; in the assay with UACC-257 melanoma, 87.6 µM.
